Experimental data published in ChEMBL document CHEMBL1140760, “Molecular docking identifies the binding of 3-chloropyridine moieties specifically to the S1 pocket of SARS-CoV Mpro” (Bioorg Med Chem, 2008).

Assay: Inhibition of SARS-CoV Mpro
Design: species or system Severe acute respiratory syndrome-related coronavirus

Compound | IC50 [nM]
O=C(Oc1cncc(Cl)c1)c1cccc([N+](=O)[O-])c1 | 684
O=C(Oc1cncc(Cl)c1)c1ccc(-c2ccc(Cl)cc2)o1 | 63
O=C(Oc1cncc(Cl)c1)c1ccc(-c2cccc([N+](=O)[O-])c2)o1 | 500
O=C(Oc1cncc(Cl)c1)c1ccc(-c2ccc([N+](=O)[O-])cc2)o1 | 60
O=C(Oc1cncc(Cl)c1)c1ccccc1[N+](=O)[O-] | 333
O=C(Oc1cncc(Cl)c1)c1ccc(-c2ccc(Cl)cc2[N+](=O)[O-])o1 | 122
O=C(Oc1cncc(Cl)c1)c1ccc(-c2ccccc2[N+](=O)[O-])o1 | 208
O=C(Oc1cncc(Cl)c1)c1cc2ccccc2oc1=O | 108
O=C(Oc1cncc(Cl)c1)c1cccc2ccccc12 | 124
